In patent publication US9187472B2 (AbbVie Inc., priority 2012, dated 2015):

Experiments:
[1] = target: NAMPT (human, recombinant, C-terminally His-tagged) (Homo sapiens, UniProt P43490); test: Time-Resolved Fluorescence Resonance Energy Transfer (TR-FRET) Binding Assay of NAMPT; conditions: without substrates; 6.8 nM NAMPT, 200 nM probe, 3 hours equilibration
Summary of the method: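 Probe displacement by compound was measured with 6.8 nM NAMPT, 200 nM Oregon Green 488-conjugated nicotinamide-competitive inhibitor probe and 1 nM Tb-anti-His antibody in 50 mM HEPES pH 7.5, 100 mM NaCl, 10 mM MgCl2, 1 mM DTT, 1% glycerol, 2% DMSO (final). After 3 h at room temperature, TR-FRET was read; IC50 from four-parameter logistic fit.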

PC3 cells = test: NAMPT Cell Proliferation Assay; assay type: cell-based; conditions: Homo sapiens, PC-3, 120 h, 5 days incubation, cell viability by Cell Titer Glo
Summary of the method: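 PC3 cells were plated at 500 cells/well in RPMI with 10% heat-inactivated FBS, left to attach overnight, then given compounds in 10-fold dilutions from 10 μM to 1×10^−5 μM. After 5 days at 37° C and 5% CO2, viability was read by luminescence and IC50s came from sigmoidal fits of percent inhibition.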

NAMPT = NAMPT (Homo sapiens, UniProt P43490); test: TR-FRET Binding Assay of NAMPT with PRPP; conditions: with 200 μM PRPP and 2.5 mM ATP; 2 nM NAMPT, 2 nM probe, 16 hours equilibration
Summary of the method: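 Run in the presence of substrates (200 μM PRPP, 2.5 mM ATP) with final 2 nM NAMPT, 2 nM probe, 1 nM Tb-anti-His antibody and 2% DMSO. Mixtures equilibrated 16 h before TR-FRET measurement so test compounds could be enzymatically modified.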

Sequence of NAMPT (human, recombinant, C-terminally His-tagged) (P43490 whole entry): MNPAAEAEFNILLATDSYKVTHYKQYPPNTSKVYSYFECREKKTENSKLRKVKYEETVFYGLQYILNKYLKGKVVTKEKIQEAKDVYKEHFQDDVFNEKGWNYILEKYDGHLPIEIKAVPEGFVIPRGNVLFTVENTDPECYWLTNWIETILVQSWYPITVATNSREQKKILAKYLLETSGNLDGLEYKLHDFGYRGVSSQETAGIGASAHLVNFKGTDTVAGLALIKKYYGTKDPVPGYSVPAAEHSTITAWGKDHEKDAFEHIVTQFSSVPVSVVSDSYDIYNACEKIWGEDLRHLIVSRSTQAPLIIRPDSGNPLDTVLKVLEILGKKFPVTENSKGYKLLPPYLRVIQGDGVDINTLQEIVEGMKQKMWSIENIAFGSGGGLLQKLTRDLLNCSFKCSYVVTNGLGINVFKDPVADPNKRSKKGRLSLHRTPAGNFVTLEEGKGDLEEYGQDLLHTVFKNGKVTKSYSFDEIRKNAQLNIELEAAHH
Sequence of NAMPT (P43490 whole entry): as above

Question: What does the source list for CC(C)OCC(=O)N1CCC(c2ccc(C(=O)NCc3ccn4ccnc4c3)cc2)CC1 [Example 237, N-(imidazo[1,2-a]pyridin-7-ylmethyl)-4-{1-[(propan-2-yloxy)acetyl]piperidin-4-yl}benzamide]?
Answer: IC50 [1]: 451 nM; IC50 (PC3 cells): 37.2 nM; IC50 (NAMPT): 0.285 nM

Question: CCC(=O)N1CCC(c2ccc(C(=O)NCc3ccn4ccnc4c3)s2)C1 (stereo not drawn) [Example 780, N-(imidazo[1,2-a]pyridin-7-ylmethyl)-5-(1-propanoylpyrrolidin-3-yl)thiophene-2-carboxamide] was tested. Which IC50 [1] did it give?
Answer: 250 nM

Question: What about the IC50 (PC3 cells) of the same molecule?
Answer: 81.7 nM

Question: And the IC50 (NAMPT)?
Answer: 0.382 nM

Question: With O=C(NCc1ccn2ccnc2c1)c1ccc(C2CCN(C(=O)c3ccco3)CC2)cc1 [Example 484, 4-[1-(furan-2-ylcarbonyl)piperidin-4-yl]-N-(imidazo[1,2-a]pyridin-7-ylmethyl)benzamide] as the molecule, how does the IC50 [1] read?
Answer: 79.5 nM

Question: And the IC50 (PC3 cells)?
Answer: 9.59 nM

Question: What about the IC50 (NAMPT) of the same molecule?
Answer: 0.19 nM

Question: Which results are given for COc1ccc(C(=O)N2CCC(c3ccc(C(=O)NCc4ccn5ccnc5c4)s3)C2)cc1 (stereo not drawn) [Example 784, N-(imidazo[1,2-a]pyridin-7-ylmethyl)-5-[1-(4-methoxybenzoyl)pyrrolidin-3-yl]thiophene-2-carboxamide]?
Answer: IC50 [1]: 22.6 nM; IC50 (PC3 cells): 2.38 nM; IC50 (NAMPT): 0.455 nM

Question: With O=C(CC1CCCC1)Nc1ccc(C(=O)NCc2ccn3ccnc3c2)cc1 [Example 117, 4-[(cyclopentylacetyl)amino]-N-(imidazo[1,2-a]pyridin-7-ylmethyl)benzamide] as the molecule, how does the IC50 [1] read?
Answer: 392 nM

Question: What about the IC50 (PC3 cells) of the same molecule?
Answer: 63.9 nM

Question: What about the IC50 (NAMPT) of the same molecule?
Answer: 0.436 nM

Question: With O=C(NCc1ccn2ccnc2c1)c1cnc(N(C[C@H]2CCCO2)C(=O)Cc2ccon2)s1 [Example 192, N-(imidazo[1,2-a]pyridin-7-ylmethyl)-2-{(1,2-oxazol-3-ylacetyl)[(2R)-tetrahydrofuran-2-ylmethyl]amino}-1,3-thiazole-5-carboxamide] as the molecule, how does the IC50 [1] read?
Answer: 238 nM

Question: And the IC50 (PC3 cells)?
Answer: 1.85 nM

Question: What about the IC50 (NAMPT) of the same molecule?
Answer: 0.242 nM

Question: What does the source list for CC1(Cn2cc(-c3ccc(C(=O)NCc4ccn5ccnc5c4)s3)cn2)COC1 [Example 254, N-(imidazo[1,2-a]pyridin-7-ylmethyl)-5-{1-[(3-methyloxetan-3-yl)methyl]-1H-pyrazol-4-yl}thiophene-2-carboxamide]?
Answer: IC50 [1]: 31.3 nM; IC50 (PC3 cells): 0.938 nM; IC50 (NAMPT): 0.306 nM

Question: Which IC50 [1] does the source give for CC(C)Cc1ccc(-c2ccc(C(=O)NCc3ccn4ccnc4c3)o2)cc1 [Example 747, N-(imidazo[1,2-a]pyridin-7-ylmethyl)-5-[4-(2-methylpropyl)phenyl]furan-2-carboxamide] here?
Answer: 435 nM

Question: And the IC50 (PC3 cells)?
Answer: 942 nM

Question: What about the IC50 (NAMPT) of the same molecule?
Answer: 1.75 nM

Question: How did the IC50 [1] turn out when O=C(NCc1ccn2ccnc2c1)Nc1ccc(OC2CN(C(=O)C3COCCO3)C2)cc1 (stereo not drawn) [Example 434, 1-(4-{[1-(1,4-dioxan-2-ylcarbonyl)azetidin-3-yl]oxy}phenyl)-3-(imidazo[1,2-a]pyridin-7-ylmethyl)urea] was run?
Answer: 102 nM

Question: And the IC50 (PC3 cells)?
Answer: 5.59 nM

Question: And the IC50 (NAMPT)?
Answer: 0.169 nM

Question: What does the source list for Cc1cc(C(=O)N2CCC(c3ccc(C(=O)NCc4ccn5ccnc5c4)s3)C2)c(C)o1 (stereo not drawn) [Example 778, 5-{1-[(2,5-dimethylfuran-3-yl)carbonyl]pyrrolidin-3-yl}-N-(imidazo[1,2-a]pyridin-7-ylmethyl)thiophene-2-carboxamide]?
Answer: IC50 [1]: 27.6 nM; IC50 (PC3 cells): 0.896 nM; IC50 (NAMPT): 0.414 nM

Question: Which results are given for CC(C)C[C@@H](NC(=O)CC1CCOC1)c1ccc(C(=O)NCc2ccn3ccnc3c2)s1 (stereo partly drawn) [Example 686, N-(imidazo[1,2-a]pyridin-7-ylmethyl)-5-{(1R)-3-methyl-1-[(tetrahydrofuran-3-ylacetyl)amino]butyl}thiophene-2-carboxamide]?
Answer: IC50 [1]: 959 nM; IC50 (PC3 cells): 77.2 nM; IC50 (NAMPT): 1.3 nM

Question: Which IC50 [1] does the source give for CC(C)OCC(=O)Nc1ccc(C(=O)NCc2ccc3nccn3c2)cc1 [Example 82, N-(imidazo[1,2-a]pyridin-6-ylmethyl)-4-{[(propan-2-yloxy)acetyl]amino}benzamide] here?
Answer: 357 nM

Question: And the IC50 (PC3 cells)?
Answer: 67.9 nM

Question: What about the IC50 (NAMPT) of the same molecule?
Answer: 6.42 nM

Question: What does the source list for O=C(Nc1ccc(C2CCN(C(=O)C3CCOCC3)CC2)cc1)Nc1ccc2nccn2c1 [Example 109, 1-imidazo[1,2-a]pyridin-6-yl-3-{4-[1-(tetrahydro-2H-pyran-4-ylcarbonyl)piperidin-4-yl]phenyl}urea]?
Answer: IC50 [1]: 340 nM; IC50 (PC3 cells): 52.2 nM; IC50 (NAMPT): 0.209 nM

Question: Which results are given for COc1cccc(C(=O)N2CC(c3ccc(C(=O)NCc4ccn5ccnc5c4)cc3)C2)c1 [Example 654, N-(imidazo[1,2-a]pyridin-7-ylmethyl)-4-[1-(3-methoxybenzoyl)azetidin-3-yl]benzamide]?
Answer: IC50 [1]: 213 nM; IC50 (PC3 cells): 67.9 nM; IC50 (NAMPT): 0.945 nM

Question: How did the IC50 [1] turn out when O=C(NCc1ccn2ccnc2c1)c1ccc(C2CCN(C(=O)C3CCCCC3)CC2)cc1 [Example 502, 4-[1-(cyclohexylcarbonyl)piperidin-4-yl]-N-(imidazo[1,2-a]pyridin-7-ylmethyl)benzamide] was run?
Answer: 169 nM

Question: What about the IC50 (PC3 cells) of the same molecule?
Answer: 16.5 nM

Question: What about the IC50 (NAMPT) of the same molecule?
Answer: 0.385 nM

Question: For CC(C)(C)C(=O)N1CCC(c2ccc(C(=O)NCc3ccn4ccnc4c3)cc2)CC1 [Example 509, 4-[1-(2,2-dimethylpropanoyl)piperidin-4-yl]-N-(imidazo[1,2-a]pyridin-7-ylmethyl)benzamide], which IC50 [1] is on record?
Answer: 163 nM

Question: And the IC50 (PC3 cells)?
Answer: 7.47 nM

Question: What about the IC50 (NAMPT) of the same molecule?
Answer: 0.384 nM

Question: Which IC50 [1] does the source give for CC(C)C[C@@H](NC(=O)C1CC1)c1ccc(C(=O)NCc2ccn3ccnc3c2)s1 [Example 685, 5-{(1R)-1-[(cyclopropylcarbonyl)amino]-3-methylbutyl}-N-(imidazo[1,2-a]pyridin-7-ylmethyl)thiophene-2-carboxamide] here?
Answer: 1250 nM

Question: And the IC50 (PC3 cells)?
Answer: 74 nM

Question: And the IC50 (NAMPT)?
Answer: 1.36 nM

Question: What does the source list for N#CC1(C(=O)N2CCC(c3ccc(C(=O)NCc4ccn5ccnc5c4)s3)C2)CC1 (stereo not drawn) [Example 781, 5-{1-[(1-cyanocyclopropyl)carbonyl]pyrrolidin-3-yl}-N-(imidazo[1,2-a]pyridin-7-ylmethyl)thiophene-2-carboxamide]?
Answer: IC50 [1]: 87.5 nM; IC50 (PC3 cells): 7.27 nM; IC50 (NAMPT): 0.839 nM

Question: Which results are given for O=C(CC1CCCC1)Nc1ccc(C(=O)NCc2ccn3ccnc3c2)cc1F [Example 305, 4-[(cyclopentylacetyl)amino]-3-fluoro-N-(imidazo[1,2-a]pyridin-7-ylmethyl)benzamide]?
Answer: IC50 [1]: 494 nM; IC50 (PC3 cells): 1170 nM; IC50 (NAMPT): 0.449 nM

Question: CC(C)OCC(=O)N1CC(Oc2ccc(NC(=O)NCc3ccn4ccnc4c3)cc2)C1 [Example 429, 1-(imidazo[1,2-a]pyridin-7-ylmethyl)-3-[4-({1-[(propan-2-yloxy)acetyl]azetidin-3-yl}oxy)phenyl]urea] was tested. Which IC50 [1] did it give?
Answer: 129 nM

Question: What about the IC50 (PC3 cells) of the same molecule?
Answer: 18.6 nM

Question: And the IC50 (NAMPT)?
Answer: 0.396 nM

Question: With CC(C)(O)C(=O)N1CCC(Oc2ccc(NC(=O)NCc3ccn4ccnc4c3)cc2)CC1 [Example 447, 1-(4-{[1-(2-hydroxy-2-methylpropanoyl)piperidin-4-yl]oxy}phenyl)-3-(imidazo[1,2-a]pyridin-7-ylmethyl)urea] as the molecule, how does the IC50 [1] read?
Answer: 261 nM

Question: What about the IC50 (PC3 cells) of the same molecule?
Answer: 12.5 nM

Question: What about the IC50 (NAMPT) of the same molecule?
Answer: 0.232 nM

Question: Which results are given for COc1ccccc1C(=O)N1CCC(c2ccc(C(=O)NCc3ccn4ccnc4c3)cc2)CC1 [Example 539, N-(imidazo[1,2-a]pyridin-7-ylmethyl)-4-[1-(2-methoxybenzoyl)piperidin-4-yl]benzamide]?
Answer: IC50 [1]: 98.5 nM; IC50 (PC3 cells): 3.47 nM; IC50 (NAMPT): 0.31 nM

Question: What does the source list for O=C(Cc1ccc(NC(=O)CC2CCCC2)cc1)Nc1ccc2nccn2c1 [Example 76, 2-cyclopentyl-N-{4-[2-(imidazo[1,2-a]pyridin-6-ylamino)-2-oxoethyl]phenyl}acetamide]?
Answer: IC50 [1]: 993 nM; IC50 (PC3 cells): 185 nM; IC50 (NAMPT): 0.739 nM

Question: Which results are given for CC(C)Cn1cc(-c2ccc(C(=O)NCc3ccc4ncnn4c3)o2)cn1 [Example 820, 5-[1-(2-methylpropyl)-1H-pyrazol-4-yl]-N-([1,2,4]triazolo[1,5-a]pyridin-6-ylmethyl)furan-2-carboxamide]?
Answer: IC50 [1]: 499 nM; IC50 (PC3 cells): 802 nM; IC50 (NAMPT): 9.28 nM

Question: Which IC50 [1] does the source give for O=C(Nc1ccc(C2CCN(C(=O)c3ccccc3)CC2)cc1)Nc1ccc2nccn2c1 [Example 112, 1-[4-(1-benzoylpiperidin-4-yl)phenyl]-3-imidazo[1,2-a]pyridin-6-ylurea] here?
Answer: 46.5 nM

Question: What about the IC50 (PC3 cells) of the same molecule?
Answer: 6.96 nM

Question: And the IC50 (NAMPT)?
Answer: 0.169 nM

Question: O=C(NCc1ccn2ccnc2c1)c1ccc(-c2cnn(C[C@@H]3CCCO3)c2)o1 [Example 742, N-(imidazo[1,2-a]pyridin-7-ylmethyl)-5-{1-[(2S)-tetrahydrofuran-2-ylmethyl]-1H-pyrazol-4-yl}furan-2-carboxamide] was tested. Which IC50 [1] did it give?
Answer: 241 nM

Question: And the IC50 (PC3 cells)?
Answer: 10.5 nM

Question: What about the IC50 (NAMPT) of the same molecule?
Answer: 0.526 nM

Question: How did the IC50 [1] turn out when CS(=O)(=O)N1CCC(c2ccc(C(=O)NCc3ccn4ccnc4c3)cc2)C1 (stereo not drawn) [Example 624, N-(imidazo[1,2-a]pyridin-7-ylmethyl)-4-[1-(methylsulfonyl)pyrrolidin-3-yl]benzamide] was run?
Answer: 261 nM

Question: And the IC50 (PC3 cells)?
Answer: 329 nM

Question: And the IC50 (NAMPT)?
Answer: 0.627 nM

Question: CC(C)(C)OC(=O)N1CCC(Cn2cc(-c3ccc(C(=O)NCc4ccn5ccnc5c4)s3)cn2)CC1 [Example 466, tert-butyl 4-[(4-{5-[(imidazo[1,2-a]pyridin-7-ylmethyl)carbamoyl]thiophen-2-yl}-1H-pyrazol-1-yl)methyl]piperidine-1-carboxylate] was tested. Which IC50 [1] did it give?
Answer: 74.9 nM

Question: And the IC50 (PC3 cells)?
Answer: 4.31 nM

Question: What about the IC50 (NAMPT) of the same molecule?
Answer: 0.287 nM
